Where two headings read alike, the source gives them in different places. Residues, ends and D or L forms follow the SMILES beside them.
Assays:
[1] = target: T1, Protein S/APC cofactor activity (Homo sapiens, UniProt P07225); test: CAT assay: Protein S/APC-dependent thrombin generation in FVIII-inhibited plasma; assay type: biochemical; details: Protein S-depleted plasma supplemented with APC and Protein S, FVIII-inhibited
T1 construct: host or cells: plasma
T1 sequence (P07225 41-676 limits assumed): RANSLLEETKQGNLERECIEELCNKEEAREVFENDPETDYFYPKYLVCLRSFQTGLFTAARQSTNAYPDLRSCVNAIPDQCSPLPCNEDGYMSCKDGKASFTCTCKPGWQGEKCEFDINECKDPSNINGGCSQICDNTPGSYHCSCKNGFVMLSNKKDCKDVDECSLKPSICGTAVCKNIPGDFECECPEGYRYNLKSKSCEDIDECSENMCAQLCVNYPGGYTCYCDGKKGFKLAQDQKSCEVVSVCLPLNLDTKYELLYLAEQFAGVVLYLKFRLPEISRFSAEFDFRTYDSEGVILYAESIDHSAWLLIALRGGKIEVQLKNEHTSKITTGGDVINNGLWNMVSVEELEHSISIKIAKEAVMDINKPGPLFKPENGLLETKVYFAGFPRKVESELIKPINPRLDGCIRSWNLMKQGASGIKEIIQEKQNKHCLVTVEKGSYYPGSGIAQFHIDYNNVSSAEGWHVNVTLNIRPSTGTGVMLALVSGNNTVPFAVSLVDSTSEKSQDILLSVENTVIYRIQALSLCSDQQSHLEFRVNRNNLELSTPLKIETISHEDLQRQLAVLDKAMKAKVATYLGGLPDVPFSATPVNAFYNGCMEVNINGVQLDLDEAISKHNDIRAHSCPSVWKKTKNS
Method: Peptides also were tested for improvement of Protein S/APC-dependent thrombin generation in hemophilic plasma using a CAT assay. Protein S enhances the anticoagulation of APC in plasma. The CAT assay quantifies the effect of Protein S on APC-mediated thrombin generation initiated via the extrinsic coagulation pathway (Nicolaes, Blood Coagul. Fibrinolysis, 8:28 (1997)). APC (35 nM) and Protein S (25 nM) was added to Protein 5-depleted plasma, and plasma samples were incubated with high titer heat inactivated anti-human FVIII plasma raised in goat (4490 BU/ml; Baxter BioScience, Vienna, Austria; 50 BU/ml final plasma concentration). Thrombin formation in plasma was followed by calibrated automated thrombography (CAT) in a Fluoroskan Ascent® reader (Thermo Labsystems, Helsinki, Finland) and quantified via the thrombin peak-height. Thrombin generation was determined at high tissue factor (TF) concentration in the absence and in the presence of APC at a concentration that reduces the peak height to ˜20%. The inhibitory effect of peptides described herein on the APC cofactor activity of Protein S (PS) in plasma was measured in FVIII-inhibited pooled normal plasma supplemented with APC. Complete (100%) Protein S/APC inhibition is the height of the thrombin peak without addition of APC. Lack of (0%) PS/APC inhibition correlates to the thrombin peak-height value with a certain amount of APC. Peptides were ranked by their normalized values in comparison to the mean of wild-type controls including SD at two defined peptide concentrations (EC50 and EC90).
Exemplary conditions for the CAT assay are as follows. Protein S-depleted plasma was supplemented with 35 nM APC and […]. Stock APC was diluted with 10 pM TF and 15 μM PL. Lyophilized peptides were dissolved in 100% DMSO to a 5 mM stock concentration and further diluted with HNABSA5-buffer+0.1% Tween80. […] In a 96 well Immulon 2HB (transparent), U-bottom (ThermoElectron) plate was mixed 80 μl plasma (+CTI+Z994-5), 10 μl peptide dilution, and 10 μl APC-TF-PL-MIX or Calibrator. Thrombin generation was initiated by dispensing 20 μL of FluCa reagent containing fluorogenic substrate and HEPES-buffered CaCl2 (100 mM) into each well. Fluorescence intensity was recorded at 37° C. using the Fluoroskan Ascent® reader (filters 390 nm excitation and 460 nm emission). The parameters of the resulting thrombin generation curves were calculated using the Thrombinoscope™ software (Thrombinoscope) and thrombin calibrator to correct for inner filter and substrate consumption effects (Hemker, Pathophysiol Haemost Thromb, 33: 415 (2003)).

Protein S = target: T2, Protein S (Homo sapiens, UniProt P07225); test: LANCE IC50 assay (competition TR-FRET) with tracer JBS0684; assay type: binding
T2 sequence (P07225 41-676 limits assumed): T1 sequence (P07225 41-676 limits assumed)
Method: Peptides also were characterized in a competition, homogenous europium-based TR-FRET assay (LANCE IC50 assay) using JBS0684 as a tracer (i.e., competitor for Protein S binding). The following reagents were mixed together in a Perkin-Elmer ProxiPlate MTP well (indicated concentration is the final concentration): Eu-labeled Protein S (10 nM), Ulight™-labeled Streptavidin (100 nM), tracer (JBS0684 (300 nM)), and peptide (titrated in three-fold dilution steps). The final volume was 50 μl/well. The reaction mix was incubated for 1 hour at room temperature, then the fluorescence emission at 665 nm was recorded on a multi-mode reader (SpectraMax® M5, Molecular Devices) using the following instrument settings: Ex 340 nm, Em 665 nm, delay 50 μsec, integration 100 μsec, reads 100. Binding of tracer peptides to soluble europium-labeled Protein S was detected by Streptavidin labeled with an acceptor fluorophor (ULight™). Inhibition of tracer-binding to Protein S by a non-biotinylated peptide results in a decrease of TR-FRET between the Eu-labeled Protein S and ULight™-labeled Streptavidin. IC50 values were obtained from peptide titration curves at constant tracer concentration using non-linear regression of the fluorescence emission signals at 665 nm.

[2] = Table 4, multiple substitutions in JBS2572, read-out: LANCE IC50

Row | SMILES | IC50 (Protein S; [2]) | other results
1 | CC(=O)N[C@H](C(=O)NCC(=O)N[C@@H](Cc1c[nH]cn1)C(=O)N[C@H](C(=O)N[C@@H](CO)C(=O)N[C@@H](C)C(=O)NCC(=O)N[C@@H](Cc1c[nH]c2ccccc12)C(=O)N[C@@H](Cc1ccc(O)cc1)C(=O)N[C@@H](CC(=O)O)C(=O)N[C@@H](Cc1ccc(O)cc1)C(=O)N[C@@H](CC(N)=O)C(=O)N[C@@H](Cc1ccccc1)C(=O)N[C@@H](CC(=O)O)C(=O)N[C@@H](Cc1c[nH]cn1)C(=O)N[C@@H](Cc1ccc(O)cc1)C(=O)N[C@@H](CCCNC(=N)N)C(=O)N[C@@H](CCC(=O)O)C(=O)N[C@@H](Cc1ccccc1)C(=O)N[C@H](C(N)=O)[C@@H](C)O)C(C)C)[C@@H](C)O [JBS2512] (Ac-TGHVSAGWYDYNFDHYREFT-NH2) |  | EC50 [1]: 24 nM
2 | CC(=O)N[C@H](C(=O)NCC(=O)N[C@@H](CC(C)C)C(=O)N[C@H](C(=O)N[C@@H](CO)C(=O)N[C@@H](C)C(=O)NCC(=O)N[C@@H](Cc1c[nH]c2ccccc12)C(=O)N[C@@H](Cc1ccc(O)cc1)C(=O)N[C@@H](CC(=O)O)C(=O)N[C@@H](Cc1ccc(O)cc1)C(=O)N[C@@H](CC(N)=O)C(=O)N[C@@H](CC(N)=O)C(=O)N[C@@H](CC(=O)O)C(=O)N[C@H](C(=O)N[C@@H](Cc1ccc(O)cc1)C(=O)N[C@@H](CCCNC(=N)N)C(=O)N[C@@H](CCC(=O)O)C(=O)N[C@@H](Cc1ccccc1)C(=O)N[C@H](C(N)=O)[C@@H](C)O)[C@@H](C)O)C(C)C)[C@@H](C)O [JBS3194] (Ac-TGLVSAGWYDYNNDTYREFT-NH2) |  | IC50 (Protein S): 1.8 nM
3 | CSCC[C@H](NC(=O)[C@H](Cc1ccc(O)cc1)NC(=O)[C@@H](NC(=O)[C@H](CC(=O)O)NC(=O)[C@H](Cc1ccccc1)NC(=O)[C@H](CC(N)=O)NC(=O)[C@H](Cc1ccc(O)cc1)NC(=O)[C@H](CC(=O)O)NC(=O)[C@H](Cc1ccc(O)cc1)NC(=O)[C@H](Cc1c[nH]c2ccccc12)NC(=O)CNC(=O)[C@H](C)NC(=O)[C@H](CO)NC(=O)[C@@H](NC(=O)[C@H](CC(C)C)NC(=O)CNC(=O)[C@@H](NC(C)=O)[C@@H](C)O)C(C)C)[C@@H](C)O)C(=O)N[C@@H](CCC(=O)O)C(=O)N[C@@H](Cc1ccccc1)C(=O)N[C@H](C(N)=O)[C@@H](C)O [JBS3186] (Ac-TGLVSAGWYDYNFDTYMEFT-NH2) | 2.6 nM | 

Further lines, with some results ahead:

Row | IC50 (Protein S; [2]) | SMILES | other results
4 | 2.5 nM | CSCC[C@H](NC(=O)[C@H](Cc1ccc(O)cc1)NC(=O)[C@H](Cc1c[nH]cn1)NC(=O)[C@H](CC(=O)O)NC(=O)[C@H](CC(N)=O)NC(=O)[C@H](CC(N)=O)NC(=O)[C@H](Cc1ccc(O)cc1)NC(=O)[C@H](CC(=O)O)NC(=O)[C@H](Cc1ccc(O)cc1)NC(=O)[C@H](Cc1c[nH]c2ccccc12)NC(=O)CNC(=O)[C@H](C)NC(=O)[C@H](CO)NC(=O)[C@@H](NC(=O)[C@H](CC(C)C)NC(=O)CNC(=O)[C@@H](NC(C)=O)[C@@H](C)O)C(C)C)C(=O)N[C@@H](CCC(=O)O)C(=O)N[C@@H](Cc1ccccc1)C(=O)N[C@H](C(N)=O)[C@@H](C)O [JBS3198] (Ac-TGLVSAGWYDYNNDHYMEFT-NH2) | 
5 | 2 nM | CC(=O)N[C@H](C(=O)NCC(=O)N[C@@H](CC(C)C)C(=O)N[C@H](C(=O)N[C@@H](CO)C(=O)N[C@@H](C)C(=O)NCC(=O)N[C@@H](Cc1c[nH]c2ccccc12)C(=O)N[C@@H](Cc1ccc(O)cc1)C(=O)N[C@@H](CC(=O)O)C(=O)N[C@@H](Cc1ccc(O)cc1)C(=O)N[C@@H](CC(N)=O)C(=O)N[C@@H](CC(N)=O)C(=O)N[C@@H](CC(=O)O)C(=O)N[C@H](C(=O)N[C@@H](Cc1ccc(O)cc1)C(=O)N[C@@H](CCCNC(=N)N)C(=O)N[C@@H](CCC(=O)O)C(=O)N[C@@H](Cc1ccccc1)C(=O)N[C@H](C(N)=O)[C@@H](C)O)C(C)C)C(C)C)[C@@H](C)O [JBS3195] (Ac-TGLVSAGWYDYNNDVYREFT-NH2) | 
6 | 1.6 nM | CC(=O)N[C@@H](Cc1ccc(O)cc1)C(=O)NCC(=O)N[C@@H](CC(C)C)C(=O)N[C@H](C(=O)N[C@@H](CO)C(=O)N[C@@H](C)C(=O)NCC(=O)N[C@@H](Cc1c[nH]c2ccccc12)C(=O)N[C@@H](Cc1ccc(O)cc1)C(=O)N[C@@H](CC(=O)O)C(=O)N[C@@H](Cc1ccc(O)cc1)C(=O)N[C@@H](CC(N)=O)C(=O)N[C@@H](Cc1ccccc1)C(=O)N[C@@H](CC(=O)O)C(=O)N[C@H](C(=O)N[C@@H](Cc1ccc(O)cc1)C(=O)N[C@@H](CCCNC(=N)N)C(=O)N[C@@H](CCC(=O)O)C(=O)N[C@@H](Cc1ccccc1)C(=O)N[C@H](C(N)=O)[C@@H](C)O)[C@@H](C)O)C(C)C [JBS3190] (Ac-YGLVSAGWYDYNFDTYREFT-NH2) | 
7 | 2.5 nM | CC(=O)N[C@H](C(=O)NCC(=O)N[C@@H](CC(C)C)C(=O)N[C@H](C(=O)N[C@@H](CCC(=O)O)C(=O)N[C@@H](C)C(=O)NCC(=O)N[C@@H](Cc1c[nH]c2ccccc12)C(=O)N[C@@H](Cc1ccc(O)cc1)C(=O)N[C@@H](CC(=O)O)C(=O)N[C@@H](Cc1ccc(O)cc1)C(=O)N[C@@H](CC(N)=O)C(=O)N[C@@H](Cc1ccccc1)C(=O)N[C@@H](CC(=O)O)C(=O)N[C@H](C(=O)N[C@@H](Cc1ccc(O)cc1)C(=O)N[C@@H](CCCNC(=N)N)C(=O)N[C@@H](CCC(=O)O)C(=O)N[C@@H](Cc1ccccc1)C(=O)N[C@H](C(N)=O)[C@@H](C)O)C(C)C)C(C)C)[C@@H](C)O [JBS3193] (Ac-TGLVEAGWYDYNFDVYREFT-NH2) | 

From US10124033B2, “Peptides and methods of use” (BAXALTA INCORPORATED, priority 2014, dated 2018)
